Measurements taken from the NIST ThermoML archive (doi:10.1021/acs.jced.5b00838).

Experiment: excess molar enthalpy (molar enthalpy of mixing); xn = mol fraction of the nth substance listed
Settings: 100 kPa, Liquid, isothermal titration calorimetry

CCCCCCCOC [1-methoxyheptane] + CC#N
excess molar enthalpy [kcal/mol]
Settings | 298.15 K | 308.15 K
x2 = 0.0304 | – | 0.0322
x2 = 0.0307 | 0.0291 | –
x2 = 0.059 | – | 0.0602
x2 = 0.0595 | 0.0573 | –
x2 = 0.0859 | – | 0.0845
x2 = 0.0867 | 0.0816 | –
x2 = 0.1114 | – | 0.106
x2 = 0.1123 | 0.103 | –
x2 = 0.1354 | – | 0.125
x2 = 0.1366 | 0.121 | –
x2 = 0.1799 | – | 0.156
x2 = 0.1813 | 0.151 | –
x2 = 0.22 | – | 0.181
x2 = 0.2216 | 0.175 | –
x2 = 0.2563 | – | 0.201
x2 = 0.2582 | 0.194 | –
x2 = 0.2894 | – | 0.216
x2 = 0.2914 | 0.209 | –
x2 = 0.3197 | – | 0.229
x2 = 0.3218 | 0.221 | –
x2 = 0.3732 | – | 0.248
x2 = 0.3754 | 0.239 | –
x2 = 0.4188 | – | 0.26
x2 = 0.4212 | 0.25 | –
x2 = 0.4583 | – | 0.268
x2 = 0.4607 | 0.258 | –
x2 = 0.5008 | – | 0.273
x2 = 0.5033 | 0.263 | –
x2 = 0.5372 | – | 0.275
x2 = 0.5396 | 0.264 | –
x2 = 0.5686 | – | 0.275
x2 = 0.571 | 0.264 | –
x2 = 0.596 | – | 0.273
x2 = 0.5983 | 0.263 | –
x2 = 0.6246 | – | 0.269
x2 = 0.6269 | 0.259 | –
x2 = 0.6494 | – | 0.265
x2 = 0.6517 | 0.256 | –
x2 = 0.6712 | – | 0.261
x2 = 0.6733 | 0.251 | –
x2 = 0.6934 | – | 0.255
x2 = 0.6955 | 0.246 | –
x2 = 0.7111 | 0.239 | 0.255
x2 = 0.7148 | 0.24 | 0.249
x2 = 0.7318 | 0.234 | 0.248
x2 = 0.7322 | 0.232 | 0.243
x2 = 0.7469 | 0.228 | 0.238
x2 = 0.7547 | 0.223 | 0.237
x2 = 0.7604 | 0.223 | 0.231
x2 = 0.7692 | – | 0.227
x2 = 0.7786 | 0.212 | –
x2 = 0.7954 | – | 0.213
x2 = 0.8041 | 0.199 | –
x2 = 0.8236 | – | 0.195
x2 = 0.8313 | 0.182 | –
x2 = 0.8414 | – | 0.182
x2 = 0.8485 | 0.171 | –
x2 = 0.86 | – | 0.168
x2 = 0.8664 | 0.157 | –
x2 = 0.8795 | – | 0.151
x2 = 0.8851 | 0.141 | –
x2 = 0.8999 | – | 0.131
x2 = 0.9047 | 0.123 | –
x2 = 0.9212 | – | 0.109
x2 = 0.9251 | 0.101 | –
x2 = 0.936 | – | 0.0913
x2 = 0.9391 | 0.0851 | –
x2 = 0.9512 | – | 0.0721
x2 = 0.9536 | 0.0668 | –
x2 = 0.9669 | – | 0.0506
x2 = 0.9686 | 0.0464 | –
x2 = 0.9832 | – | 0.0265
x2 = 0.9841 | 0.0235 | –
